Laboratory results published in BindingDB's records for PubMed 37981443 (National Clinical Research Center for Geriatrics).

Legend:
[1] = target: Procathepsin L (Homo sapiens, UniProt P07711); assay: Inhibition of Cathepsin L (unknown origin)
[2] = target: 1-phosphatidylinositol 3-phosphate 5-kinase (Homo sapiens, UniProt Q9Y2I7); assay: Inhibition of N-terminal His-tagged human PIKfyve expressed in Sf9 insect cells incubated for 1 hr by enzyme assay
Sequence of 1-phosphatidylinositol 3-phosphate 5-kinase (Q9Y2I7 whole entry): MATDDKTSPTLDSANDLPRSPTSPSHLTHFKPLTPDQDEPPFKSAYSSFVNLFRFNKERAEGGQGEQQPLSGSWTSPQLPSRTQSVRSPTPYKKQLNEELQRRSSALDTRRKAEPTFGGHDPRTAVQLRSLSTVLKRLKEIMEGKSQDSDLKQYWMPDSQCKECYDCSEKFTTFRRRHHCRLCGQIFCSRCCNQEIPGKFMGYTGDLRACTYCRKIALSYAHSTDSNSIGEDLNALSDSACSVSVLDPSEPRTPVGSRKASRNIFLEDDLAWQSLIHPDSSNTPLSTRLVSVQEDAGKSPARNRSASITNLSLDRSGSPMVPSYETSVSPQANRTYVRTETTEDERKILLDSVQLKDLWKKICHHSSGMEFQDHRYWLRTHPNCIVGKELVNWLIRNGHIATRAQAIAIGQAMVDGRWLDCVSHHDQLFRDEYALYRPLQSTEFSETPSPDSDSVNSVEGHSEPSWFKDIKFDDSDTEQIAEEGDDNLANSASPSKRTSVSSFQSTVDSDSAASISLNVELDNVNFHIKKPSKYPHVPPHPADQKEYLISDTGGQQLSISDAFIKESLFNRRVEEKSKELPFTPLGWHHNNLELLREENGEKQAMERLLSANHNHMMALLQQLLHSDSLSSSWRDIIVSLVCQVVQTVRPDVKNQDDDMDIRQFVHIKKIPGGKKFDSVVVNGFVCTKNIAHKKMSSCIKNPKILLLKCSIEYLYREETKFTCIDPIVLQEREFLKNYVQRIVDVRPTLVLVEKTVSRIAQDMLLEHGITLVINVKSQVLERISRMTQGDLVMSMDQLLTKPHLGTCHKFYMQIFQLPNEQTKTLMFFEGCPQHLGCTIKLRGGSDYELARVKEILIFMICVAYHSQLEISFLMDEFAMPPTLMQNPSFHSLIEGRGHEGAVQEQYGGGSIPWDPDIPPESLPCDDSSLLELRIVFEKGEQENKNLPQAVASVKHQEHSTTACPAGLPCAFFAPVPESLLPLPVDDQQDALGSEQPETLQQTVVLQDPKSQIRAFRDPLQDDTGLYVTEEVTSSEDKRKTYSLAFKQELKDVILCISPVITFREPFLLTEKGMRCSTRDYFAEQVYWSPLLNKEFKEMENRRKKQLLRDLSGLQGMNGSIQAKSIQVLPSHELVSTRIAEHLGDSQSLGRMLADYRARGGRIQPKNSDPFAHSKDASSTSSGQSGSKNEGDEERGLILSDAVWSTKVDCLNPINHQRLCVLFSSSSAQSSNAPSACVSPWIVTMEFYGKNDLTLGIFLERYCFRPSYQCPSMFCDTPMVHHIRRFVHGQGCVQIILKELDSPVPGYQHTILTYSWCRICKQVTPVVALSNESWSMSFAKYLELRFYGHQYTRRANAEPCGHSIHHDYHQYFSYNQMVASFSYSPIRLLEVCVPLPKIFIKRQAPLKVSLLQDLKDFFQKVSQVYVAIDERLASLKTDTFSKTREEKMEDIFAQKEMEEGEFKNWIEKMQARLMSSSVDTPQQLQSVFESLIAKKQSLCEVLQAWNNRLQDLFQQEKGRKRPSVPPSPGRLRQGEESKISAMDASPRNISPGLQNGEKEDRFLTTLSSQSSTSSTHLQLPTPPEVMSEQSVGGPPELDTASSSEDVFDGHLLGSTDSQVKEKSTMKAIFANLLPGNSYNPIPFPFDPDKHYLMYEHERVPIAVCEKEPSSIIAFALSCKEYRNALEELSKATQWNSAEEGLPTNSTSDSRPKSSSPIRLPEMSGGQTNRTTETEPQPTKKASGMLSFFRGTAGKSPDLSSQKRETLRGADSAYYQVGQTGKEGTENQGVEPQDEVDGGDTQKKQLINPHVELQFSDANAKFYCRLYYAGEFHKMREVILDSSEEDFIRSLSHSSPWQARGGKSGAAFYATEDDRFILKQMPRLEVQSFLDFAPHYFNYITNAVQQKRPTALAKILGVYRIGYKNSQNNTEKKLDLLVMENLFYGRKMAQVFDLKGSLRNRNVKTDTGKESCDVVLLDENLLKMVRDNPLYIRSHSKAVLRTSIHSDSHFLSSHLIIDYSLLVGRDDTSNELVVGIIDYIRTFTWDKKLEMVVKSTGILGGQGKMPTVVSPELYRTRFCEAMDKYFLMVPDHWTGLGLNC

Sequence of Procathepsin L (P07711 whole entry): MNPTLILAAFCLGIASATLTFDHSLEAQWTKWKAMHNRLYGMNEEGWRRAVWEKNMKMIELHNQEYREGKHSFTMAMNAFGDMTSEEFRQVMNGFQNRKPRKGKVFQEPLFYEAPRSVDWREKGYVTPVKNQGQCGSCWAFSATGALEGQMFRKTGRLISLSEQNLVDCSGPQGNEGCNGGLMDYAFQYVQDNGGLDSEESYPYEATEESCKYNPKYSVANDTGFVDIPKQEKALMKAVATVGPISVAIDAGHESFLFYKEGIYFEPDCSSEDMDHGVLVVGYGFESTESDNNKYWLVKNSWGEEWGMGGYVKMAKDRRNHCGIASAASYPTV

Compound	IC50 [1] [nM]	IC50 [2] [nM]
CCCC[C@@H](C=O)NC(=O)[C@H](CC(C)C)NC(=O)OCc1ccccc1 [[(S)-1-((S)-1-Formyl-pentylcarbamoyl)-3-methyl-butyl]-carbamic acid benzyl ester]	44	
COc1ccc2[nH]c(C)c(/C=C/C(=O)c3ccncc3)c2c1		5.1
